Experimental data published in US20110152079A1, “Pesticidal Compound Mixtures” (BAYER CROPSCIENCE AG, priority 2009, published 2011).

How the values were obtained:
Format in all cases: in vivo
[1] = system: Myzus persicae; assay: Myzus persicae - Test (sprayed cabbage leaves); conditions: single compound; for mortality at 500 g/ha / Mortality in % after 6d: 500 g/ha
Experimental: (§1) Solvent: 78 parts by weight of acetone • • 1.5 parts by weight of dimethylformamide Emulsifier: 0.5 parts by weight of alkylaryl polyglycole-ether
(§2) To produce a suitable preparation of active compound, 1 part by weight of active compound is mixed with the stated amount of solvent and emulsifier, and the concentrate is diluted with emulsifier-containing water to the desired concentration.
Cabbage leaves (Brassica oleracea) which are heavily infested by the green peach aphid (Myzus persicae) are treated by being sprayed with the preparation of the active compound at the desired concentration. After the specified period of time, the mortality in % is determined 100% means that all the aphids have been killed; 0% means that none of the aphids have been killed.

[2] = system: Tetranychus urticae; assay: Tetranychus urticae - Test (OP-resistant, bean plants); conditions: 144 h, single compound, 6 d, read-out: Mortality in % after 6d
Experimental: as §1, §2
Bean plants (Phaseolus vulgaris) which are heavily infested with all stages of the two-spotted spider mite (Tetranychus urticae) are treated by being sprayed with the preparation of the active compound at the desired concentration.
After the specified period of time, mortality in % is determined 100% means that all the spider mites have been killed; 0% means that none of the spider mites have been killed.

[3] = system: Spodoptera frugiperda; assay: Spodoptera frugiperda - Test (sprayed cabbage leaves); conditions: 500 g/ha, single compound
Experimental: as §1, §2
Cabbage leaves (Brassica oleracea) are treated by being sprayed with the preparation of the active compound at the desired concentration and are infested with larvae of the fall army worm (Spodoptera frugiperda) as long as the leaves are still moist.
After the specified period of time, the mortality in % is determined 100% means that all the caterpillars have been killed; 0% means that none of the caterpillars have been killed.

[4] = system: Phaedon cochleariae; assay: Phaedon cochleariae Larven - Test (sprayed cabbage leaves); conditions: 144 h, single compound, 6 d, read-out: Mortality in % after 6d
Experimental: as §1, §2
Cabbage leaves (Brassica oleracea) are treated by being sprayed with the preparation of the active compound at the desired concentration and are infested with larvae of the mustard beetle (Phaedon cochleariae) as long as the leaves are still moist.
After the specified period of time, the mortality in % is determined 100% means that all the beetle larvae have been killed; 0% means that none of the beetle larvae have been killed.

[5] = Myzus persicae, 144 h, 6 d, read-out: Mortality in % after 6d

COC(=O)C(C)N(C(=O)Cc1ccccc1)c1c(C)cccc1C (stereo not shown) [Benalaxyl]
mortality at 500 g/ha [1, 5]: 0%

CC1(C(=O)Nc2ccc(O)c(Cl)c2Cl)CCCCC1 [Fenhexamid]
mortality at 500 g/ha [1, 5]: 0% | mortality at 500 g/ha [2]: 0%

O=C(NCc1ncc(C(F)(F)F)cc1Cl)c1c(Cl)cccc1Cl [Fluopicolide]
Mortality in % after 6d [1]: 0%

CCO[PH](=O)O [Fosetyl AL]
Mortality in % after 6d [1]: 0%

N#Cc1ccccc1NC(=O)c1snc(Cl)c1Cl [Isotianil]
Mortality in % after 6d [3]: 0%

COCC(=O)N(c1c(C)cccc1C)C(C)C(=O)OC (stereo not shown) [Metalaxyl]
mortality at 500 g/ha ([4]; 500 g/ha): 0%

CCCN(CCOc1c(Cl)cc(Cl)cc1Cl)C(=O)n1ccnc1 [Prochloraz]
mortality at 500 g/ha [1, 5]: 0%

CN(C)C(=S)SSC(=S)N(C)C [Thiram]
mortality at 500 g/ha [1, 5]: 0%

Cc1ccc(N(SC(F)(Cl)Cl)S(=O)(=O)N(C)C)cc1 [Tolyfluanid]
mortality at 500 g/ha [2]: 0%

CC1(C)[C@H](C=C(Cl)Cl)[C@H]1C(=O)OCc1c(F)c(F)cc(F)c1F [Transfluthrin]
mortality at 20 g/ha ([1]; Myzus persicae, 144 h, 20 g/ha, 6 d, read-out: Mortality in % after 6d): 0% | mortality at 20 g/ha ([4]; 20 g/ha): 50% | mortality at 100 g/ha ([2]; 100 g/ha): 0%
